In ChEMBL document CHEMBL5724914, “Linking interpersonal differences in gut microbiota composition and drug biotransformation activity” (2024):

Assays:
[1] = (§1) The drug is tested on Z-004 corresponding to metagenome with ENA study accession number: PRJEB37062 and ENA sample accession number: ERS12561804 for biotransformation under anaerobic condition. The drug concentrations were measured over 9 timepoints collected between 0 and 24 hours of incubation by liquid-chromatography-coupled mass spectrometry (LC–MS); details: 2 µM
[2] = (§2) The drug is tested on WLS-240 corresponding to human gut metagenome with ENA study accession number: PRJEB37062 and ENA sample accession number: ERS12561773 for biotransformation under anaerobic condition. The drug concentrations were measured over 9 timepoints collected between 0 and 24 hours of incubation by liquid-chromatography-coupled mass spectrometry (LC–MS); details: 2 µM
[3] = as §1, with “Z-012” for “Z-004”, “ERS12561812” for “ERS12561804”; details: 2 µM
[4] = as §2, with “Z-006” for “WLS-240”, “mouse” for “human”, “ERS12561806” for “ERS12561773”; details: 2 µM
[5] = as §2, with “WLS-310” for “WLS-240”, “ERS12561785” for “ERS12561773”; details: 2 µM
[6] = as §2, with “WLS-086” for “WLS-240”, “ERS12561752” for “ERS12561773”; details: 2 µM
[7] = as §2, with “Z-022” for “WLS-240”, “mouse” for “human”, “ERS12561821” for “ERS12561773”; details: 2 µM
[8] = human gut metagenome, 24 h, 2 µM
[9] = as §2, with “Z-025” for “WLS-240”, “rabbit” for “human”, “ERS12561824” for “ERS12561773”; details: 2 µM
[10] = as §2, with “WLS-038” for “WLS-240”, “ERS12561745” for “ERS12561773”; details: 2 µM
[11] = as §2, with “Z-011” for “WLS-240”, “mouse” for “human”, “ERS12561811” for “ERS12561773”; details: 2 µM
[12] = human gut metagenome, 24 h, 2 µM; remark: listed apart in the source
[13] = human gut metagenome, 24 h, 2 µM; remark: listed apart in the source
[14] = human gut metagenome, 24 h, 2 µM; remark: listed apart in the source
[15] = as §2, with “Z-013” for “WLS-240”, “rabbit” for “human”, “ERS12561813” for “ERS12561773”; details: 2 µM
[16] = as §2, with “Z-028” for “WLS-240”, “mouse” for “human”, “ERS12561827” for “ERS12561773”; details: 2 µM
[17] = human gut metagenome, 24 h, 2 µM; remark: listed apart in the source
[18] = human gut metagenome, 24 h, 2 µM; remark: listed apart in the source
[19] = human gut metagenome, 24 h, 2 µM; remark: listed apart in the source
[20] = as §2, with “Z-017” for “WLS-240”, “mouse” for “human”, “ERS12561816” for “ERS12561773”; details: 2 µM
Also: call rule not given here.

| SMILES | Bacterial Biotransformation [1] | Bacterial Biotransformation [2] | Bacterial Biotransformation [3] | Bacterial Biotransformation [4] | Bacterial Biotransformation [5] | Bacterial Biotransformation [6] | Bacterial Biotransformation [7] | Bacterial Biotransformation [8] | Bacterial Biotransformation [9] | Bacterial Biotransformation [10] | Bacterial Biotransformation [11] | Bacterial Biotransformation [12] | Bacterial Biotransformation [13] | Bacterial Biotransformation [14] | Bacterial Biotransformation [15] | Bacterial Biotransformation [16] | Bacterial Biotransformation [17] | Bacterial Biotransformation [18] | Bacterial Biotransformation [19] | Bacterial Biotransformation [20] |
| --- | --- | --- | --- | --- | --- | --- | --- | --- | --- | --- | --- | --- | --- | --- | --- | --- | --- | --- | --- | --- |
| Cc1cc(C)cc(OCC2CNC(=O)O2)c1 (stereo not given) [METAXALONE] | Compound NOT metabolized | Compound metabolized | Compound NOT metabolized | Compound NOT metabolized | Compound metabolized | Compound metabolized | Compound NOT metabolized | Compound metabolized | Compound NOT metabolized | Compound metabolized | Compound NOT metabolized | Compound metabolized | Compound NOT metabolized | Compound metabolized | Compound NOT metabolized | Compound NOT metabolized | Compound metabolized | Compound metabolized | Compound metabolized | Compound metabolized |
| Br.COc1ccc2c(c1)[C@]13CCCC[C@@H]1[C@H](C2)N(C)CC3.O [DEXTROMETHORPHAN HYDROBROMIDE] | Compound metabolized | Compound metabolized | Compound NOT metabolized | Compound NOT metabolized | Compound metabolized | Compound metabolized | Compound NOT metabolized | Compound metabolized | Compound metabolized | Compound NOT metabolized | Compound NOT metabolized | Compound NOT metabolized | Compound NOT metabolized | Compound metabolized | Compound NOT metabolized | Compound NOT metabolized | Compound metabolized | Compound metabolized | Compound NOT metabolized | Compound NOT metabolized |
| CC(C)(C)NC(=O)[C@H]1CC[C@H]2[C@@H]3CC[C@H]4NC(=O)C=C[C@]4(C)[C@H]3CC[C@]12C [FINASTERIDE] | Compound NOT metabolized | Compound metabolized | Compound metabolized | Compound metabolized | Compound metabolized | Compound metabolized | Compound metabolized | Compound metabolized | Compound NOT metabolized | Compound metabolized | Compound metabolized | Compound metabolized | Compound metabolized | Compound metabolized | Compound metabolized | Compound metabolized | Compound metabolized | Compound metabolized | Compound metabolized | Compound NOT metabolized |
| CCN(C)C(=O)Oc1cccc([C@H](C)N(C)C)c1.O=C(O)C(O)C(O)C(=O)O [RIVASTIGMINE TARTRATE] | Compound NOT metabolized | Compound metabolized | Compound NOT metabolized | Compound NOT metabolized | Compound NOT metabolized | Compound NOT metabolized | Compound NOT metabolized | Compound NOT metabolized | Compound NOT metabolized | Compound metabolized | Compound NOT metabolized | Compound NOT metabolized | Compound NOT metabolized | Compound NOT metabolized | Compound NOT metabolized | Compound NOT metabolized | Compound metabolized | Compound NOT metabolized | Compound metabolized | Compound NOT metabolized |
| Br.CN1CCC[C@@H]1Cc1c[nH]c2ccc(CCS(=O)(=O)c3ccccc3)cc12 [ELETRIPTAN HYDROBROMIDE] | Compound NOT metabolized | Compound metabolized | Compound NOT metabolized | Compound NOT metabolized | Compound metabolized | Compound metabolized | Compound NOT metabolized | Compound metabolized | Compound NOT metabolized | Compound NOT metabolized | Compound NOT metabolized | Compound NOT metabolized | Compound NOT metabolized | Compound metabolized | Compound NOT metabolized | Compound NOT metabolized | Compound metabolized | Compound NOT metabolized | Compound NOT metabolized | Compound NOT metabolized |
| CCN(CC)CCNC(=O)c1cc(S(C)(=O)=O)ccc1OC [TIAPRIDE] | Compound NOT metabolized | Compound metabolized | Compound NOT metabolized | Compound NOT metabolized | Compound metabolized | Compound NOT metabolized | Compound NOT metabolized | Compound metabolized | Compound NOT metabolized | Compound NOT metabolized | Compound metabolized | Compound NOT metabolized | Compound NOT metabolized | Compound metabolized | Compound NOT metabolized | Compound NOT metabolized | Compound metabolized | Compound NOT metabolized | Compound NOT metabolized | Compound NOT metabolized |
| COc1cc(C(=O)NCc2ccc(OCCN(C)C)cc2)cc(OC)c1OC [TRIMETHOBENZAMIDE] | Compound NOT metabolized | Compound NOT metabolized | Compound NOT metabolized | Compound NOT metabolized | Compound NOT metabolized | Compound NOT metabolized | Compound NOT metabolized | Compound NOT metabolized | Compound NOT metabolized | Compound NOT metabolized | Compound NOT metabolized | Compound NOT metabolized | Compound NOT metabolized | Compound NOT metabolized | Compound NOT metabolized | Compound NOT metabolized | Compound NOT metabolized | Compound NOT metabolized | Compound NOT metabolized | Compound NOT metabolized |
| COc1ccc([C@@H]2Sc3ccccc3N(CCN(C)C)C(=O)[C@@H]2OC(C)=O)cc1 [DILTIAZEM] | Compound metabolized | Compound metabolized | Compound metabolized | Compound NOT metabolized | Compound metabolized | Compound metabolized | Compound metabolized | Compound metabolized | Compound NOT metabolized | Compound NOT metabolized | Compound NOT metabolized | Compound NOT metabolized | Compound metabolized | Compound metabolized | Compound NOT metabolized | Compound metabolized | Compound metabolized | Compound metabolized | Compound metabolized | Compound NOT metabolized |
